# Laboratory results published in US9000166B2, “Metal complexes” (Merck Patent GmbH, priority 2005, dated 2015).
# Test: Solubility in various solvents at T=25° C.
# Assay type: physicochemical
# Excerpt: Excellent solubility of the complex is found in many common organic solvents, even in polar protic solvents, such as ethanol and ethanol/water mixtures. As comparison in accordance with the prior art, the solubility of fac-tris[2-(2-pyridinyl-κN)phenyl-κC]iridium(III) (IrPPy) is indicated.
substance,measurement,setting,value
fac-Tris[2-(2-pyridinyl-κN)-5-(tri-n-butylphosphonium)phenyl)-κC]iridium(III) tribromide [Example 1],Solubility,Acetone,unlimited
same,Solubility,Chloroform,unlimited
same,Solubility,DMF,unlimited
same,Solubility,DMSO,unlimited
same,Solubility,Dichloromethane,unlimited
same,Solubility,Ethanol,134.0 mg/mL
same,Solubility,Hexane,>1.0 mg/mL
same,Solubility,NMP,unlimited
same,Solubility,Toluene,unlimited
same,Solubility,Water,11.5 mg/mL
same,Solubility,"Water/ethanol (1:1, v,v)",43.0 mg/mL
